Laboratory results from ChEMBL document CHEMBL1201862, “PubChem BioAssay data set” (2004).
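Cultured in 96-well plates, cells were exposed to test compound for 48 hours across five concentrations. GI50 marks 50% less growth.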 Active and inactive are the calls of the source. No stated cut-off is given here; in the data, active = GI50 up to about 1.1 µM and inactive = higher.

Tests used:
Assay in all cases: DTP human tumour cell line panel, 48 h
[1] = test system: SF-539
[2] = test system: MOLT-4
[3] = test system: A549
[4] = test system: MDA-MB-435
[5] = test system: HOP-92
[6] = test system: SR
[7] = test system: A498
[8] = test system: HCT-116
[9] = test system: UACC-62
[10] = test system: PC-3
[11] = test system: MCF7
[12] = test system: Hs-578T
[13] = test system: OVCAR-5
[14] = test system: IGROV-1
[15] = test system: K562
[16] = test system: OVCAR-8
[17] = test system: SK-MEL-5
[18] = test system: LOX IMVI
[19] = test system: SF-268
[20] = test system: SW-620
[21] = test system: OVCAR-3
[22] = test system: OVCAR-4
[23] = test system: Malme-3M
[24] = test system: M14
[25] = test system: RPMI-8226
[26] = test system: U-251
[27] = test system: 786-0
[28] = test system: UO-31
[29] = test system: SNB-75
[30] = test system: RXF 393
[31] = test system: HCT-15
[32] = test system: CCRF-CEM
[33] = test system: NCI-H226
[34] = test system: MDA-MB-231
[35] = test system: SK-OV-3
[36] = test system: HL-60
[37] = test system: UACC-257
[38] = test system: COLO 205
[39] = test system: CAKI-1
[40] = test system: SNB-19
[41] = test system: SF-295
[42] = test system: DU-145
[43] = test system: HOP-62
[44] = test system: SN12C
[45] = test system: SK-MEL-2
[46] = test system: ACHN
[47] = test system: BT-549
[48] = test system: NCI/ADR-RES
[49] = test system: T47D
[50] = test system: KM12
[51] = test system: HCC 2998
[52] = test system: EKVX
[53] = test system: MDA-N
[54] = test system: NCI-H23
[55] = test system: NCI-H460

For `CCOC(=O)C(Cc1ccc(N(CCCl)CCCl)cc1)NC(=O)C(Cc1ccccc1)NC(C)=O` (stereo not given), the GI50 [1] was 175 nM (active), the GI50 [2] was 58.1 nM (active) and the GI50 [3] was > 569 nM (active). The GI50 [4] was 264 nM (active), the GI50 [5] was 621 nM (active) and the GI50 [6] was 153 nM (active). The GI50 [7] was > 288 nM (active), the GI50 [8] was > 265 nM (active) and the GI50 [9] was 136 nM (active). The GI50 [10] was > 254 nM (active), the GI50 [11] was 163 nM (active) and the GI50 [12] was > 368 nM (active). The GI50 [13] was > 293 nM (active), the GI50 [14] was 41.4 nM (active) and the GI50 [15] was > 279 nM (active). For the same compound, the GI50 [16] was > 322 nM (active), the GI50 [17] was 248 nM (active) and the GI50 [18] was 111 nM (active). For the same compound, the GI50 [19] was 126 nM (active), the GI50 [20] was 236 nM (active) and the GI50 [21] was 173 nM (active). The GI50 [22] was 15.9 nM (active), the GI50 [23] was 88.7 nM (active) and the GI50 [24] was 141 nM (active). The GI50 [25] was 65.5 nM (active), the GI50 [26] was > 316 nM (active) and the GI50 [27] was 184 nM (active). The GI50 [28] was 106 nM (active), the GI50 [29] was > 1000 nM (active) and the GI50 [30] was 106 nM (active). For the same compound, the GI50 [31] was over 378 nM, the GI50 [32] was 35.3 nM (active) and the GI50 [33] was > 1000 nM (active). The GI50 [34] was > 284 nM (active), the GI50 [35] was > 296 nM (active) and the GI50 [36] was 90.8 nM (active). For the same compound, the GI50 [37] was 235 nM (active), the GI50 [38] was 213 nM (active) and the GI50 [39] was 111 nM (active). For the same compound, the GI50 [40] was > 380 nM (active), the GI50 [41] was > 326 nM (active) and the GI50 [42] was > 582 nM (active). The GI50 [43] was 275 nM (active), the GI50 [44] was 155 nM (active) and the GI50 [45] was > 265 nM (active). For the same compound, the GI50 [46] was 25.5 nM (active), the GI50 [47] was > 583 nM (active) and the GI50 [48] was > 330 nM (active). The GI50 [49] was 157 nM (active), the GI50 [50] was > 338 nM (active) and the GI50 [51] was > 1000 nM (active). The GI50 [52] was > 347 nM (active), the GI50 [53] was > 262 nM (active) and the GI50 [54] was 162 nM (active). For the same compound, the GI50 [55] was 222 nM (active).
